Source: publication PMC4341462, “Human RNASET2 derivatives as potential anti-angiogenic agents: actin binding sequence identification and characterization” (Oncoscience, 2014)

Assays:
[1] = biological target: actin (Oryctolagus cuniculus, UniProt P68135); experiment: Actin binding solid phase assay (ELISA); conditions: from 500 ng/well, 1 h at 37°C, discussion also refers to BIAcore
Excerpt: For further insight on the actin binding site within the hRNASET2 protein sequence we tested 29 suspected peptides for their ability to bind actin. The actin-binding capability of the 29 synthetic peptides was compared to the binding capability of trT2-50 using a solid phase actin binding assay. […] We next tested the interaction kinetics to evaluate the interaction nature as described for trT2-50 and trT2-50m. […] In addition, there is a linear relation between the protein concentration and the maximal (steady-state) response for peptides A103-Q159 and K108-K133, indicating the pseudo-first-order regime in relation to the immobilized actin.
96-well plates (MaxiSorp® flat-bottom 96-well plate, Fisher Scientific Inc., Fair Lawn, NJ) were coated with 500 ng actin in 100 μl carbonate-bicarbonate buffer (pH 9.5) for 1 h at 37°C. The plate was washed once with TBS and then blocked with 3% BSA in 200 μl TBS buffer at 37°C, for 1 h. Wells were then washed once with 250 μl TBS. trT2-50, trT2-50m or each of the 29 peptides were added at 1:2 dilutions in 100 μl TBS, starting from 500 ng/well, incubated for 1 h at 37°C and then washed three times with TBS containing 0.1% Tween-20 (TBST). […] Absorbance at 655 nm was measured 10 min thereafter using a Power Wave 200 Microplate Scanning Spectrophotometer (Bio-Tek Instrument, Winooski, VT). Affinity was evaluated by double reciprocal plot.

[2] = test system: HUVEC (angiogenin-induced tube formation); experiment: HUVEC tube formation assay on Matrigel, angiogenin-induced; format: cell-based, human; conditions: 2 μM, angiogenin 1 μg/ml, 8 h, vs PBS control, N=5
Method: (§1) Figure 4 trT2-50m and peptides A103-Q159 (57aa) and K108-K133 (26aa) inhibit angiogenin- and VEGF-induced HUVEC tube formation on Matrigel Freshly isolated HUVECs were plated in a 96-well plate previously coated with Matrigel. (A): Cells were treated with either peptide A103-Q159, K108-K133 or K108-L123 (2μM) or PBS (control), in addition to angiogenin or VEGF (1 μg/ml). (B): tube formation was assessed using Image J, the results are represented as percent of control. […] (C): Cells were treated with trT2-50m (2μM) or PBS (control), in addition to angiogenin or VEGF (1 μg/ml).
(§2) Freshly isolated HUVEC were maintained in endothelial cell growth medium (EGM) supplemented with SingleQuots (EGM BulletKit CC-3124, Lonza). They were then plated in a 96-well plates (14 × 10^3 cells/well) previously coated with growth factor-depleted Matrigel (Becton-Dickinson, Bedford, MA) in M199 medium supplemented with 20% FBS, 1% glutamine, 1% antibiotic–antimycotic solution (Biological Industries) and 50 U/100 ml heparin (Biomedical Technologies Inc., Stoughton, MA). Cells were treated with trT2-50m (2 μM), peptides or PBS, in addition to angiogenin (R&D Systems, Inc. Minneapolis, MN), or VEGF (Protein Laboratories, Rehovot, Israel) (1 μg/ml each). After 8 h of incubation at 37°C, the plates were photographed and the extent of tube formation was counted using Image J (NIH, Bethesda, MD) software. […]

[3] = test system: HUVEC (VEGF-induced tube formation); experiment: HUVEC tube formation assay on Matrigel, VEGF-induced; format: cell-based, human; conditions: 2 μM, VEGF 1 μg/ml, 8 h, vs PBS control, N=5
Method: as §1, §2

[4] = biological target: T1, Actin from rabbit muscle (Sigma A2522) (Oryctolagus cuniculus, UniProt P68135); experiment: Surface plasmon resonance (BIAcore 3000) of actin binding; conditions: actin on CM5 chip, amine coupling, 5 concentrations, 10 μl/min, 25°C
T1 construct: purchased Sigma A2522; host or cells: rabbit muscle (tissue-purified)
Method: SPR was performed on a BIAcore 3000 instrument (BIAcore, Uppsala, Sweden). Actin was diluted in 100 mM CH3COONa pH 4.6 to a final concentration of 20μg/ml (200μl total) resulting in ~1ng immobilized actin on a CM5 BIAcore sensor chip (GE Healthcare Bio-Sciences AB) using the standard BIAcore amine coupling chemistry protocol. The CM5 chip allows four separate flow cells to be operated in the BIAcore 3000 instrument used in these experiments. Coupling is achieved by activating the surface of the sensor chips with equal volumes of 50 mM N-hydroxysuccimide (NHS)/200 mM Nethyl-N-(3-[…])-carboiimide (EDC) (BIAcore, AB, Uppsala, Sweden) to form activated carboxyl groups. In the BIAcore protocol the binding is believed to be between carboxyl groups on the surface and amine groups on the protein. The actin solution (15 μg/ml) was then run over the chip for 5 min at a rate of 10 μl/min, where the amine groups on protein react with the activated esters. In the final stage of immobilization, the surface was blocked by 1M ethanol amine, pH 8.0. The binding assay was performed by injecting the hRNASET2, trT2-50, trT2-50m or peptides solutions in running buffer (HBS-10mM Hepes, 150mM Sodium Chloride, 3mM EDTA, 0.005% Polysorbate 20) at 5 different concentrations at a flow rate of 10 μl/min at 25°C. Injections were performed simultaneously over all four channels and blank surface a plain dextran matrix (channel 1) was used as control. The net signal was obtained by subtracting the blank signal from the signal of the immobilized surface. The association phase for protein or peptides binding to actin was followed for 4 min, and dissociation phases were monitored for 3 min. Surface regeneration between consecutive binding cycles included a 1 min injection of 1 mM NaOH. The response was monitored as a function of time (sensorgram) at 25°C. Multi-concentration data were globally fit using BIA evaluation 3.2 software.
The strength of a two molecule interaction is characterized by the equilibrium dissociation (binding) constant KD =[P][L]/[PL], where [P] is the concentration of free protein (or peptide), [L] the concentration of ligand and [PL] the concentration of the complex. At equilibrium, KD is related to the rate of complex formation (described by the association rate constant, ka) and the rate of breakdown (described by the dissociation rate constant, kd ), such that KD =[…]. A high affinity interaction is characterized by a low KD, rapid recognition and binding by high ka, and stability of complex formation by low kd.

[5] = test system: CAM; experiment: Ex ovo CAM angiogenesis assay; format: in vivo, chicken; conditions: 3 μg on filter paper disk every day for 4 days from day 8, vs PBS; N=3 for hRNASET2 and trT2-50, N=5 for peptides and PBS
Method: In this assay we used fertilized eggs cracked into a petri dish after […] of incubation in 37°C and 60% humidity. In the following days, the embryos developed a vascular network. Treatment began on the eighth day of incubation and was delivered drop-wise onto disks of Whatman paper that had been placed on the developing vascular regions. The treatment was performed every day for 4 days. The number of blood vessels around the treated disk was counted every day.
Fertilized chicken eggs were incubated horizontally at 37°C and humidity of 60 - 62% and cracked into Petri dishes at embryonic day 4. Incubation was continued under the same conditions. On day 8, sterile filter paper disks (5.5 mm in diameter) were layered on top of the CAM and soaked either with 5 μl PBS or 3 μg hRNASET2, trT2-50, peptide A103-Q159 or peptide K108-K133. Treatment was given every day for four days, then, the number of blood vessels around the treated disks was counted. (For hRNASET2 and trT2-50, N=3; for peptide A103-Q159, peptide K108-K133 and PBS, N=5).

[6] = test system: HUVECs; experiment: Immunofluorescence: localization and co-localization of peptide and angiogenin in HUVECs; format: cell-based, human; conditions: anti-angiogenin (red)
Method: Cells were cultured on PBS-covered slides in 12-well plates with 0.1% pork gelatin (Sigma-Aldrich) and were incubated with peptide K108-K133 or angiogenin. Cells were fixed with 3% Paraformaldehyde (PFA) (Merck Millipore, Dermstadt, Germany) containing 0.5% triton, washed three times with PBS and blocked with 5% donkey serum (Jackson ImmunoResearch). Rabbit anti-angiogenin (Merck Millipore) was added (1:100 dilution; prepared in 5% donkey serum) and incubated overnight at 4°C. After washing three times with TBST, the slides were incubated for 1 h with Alexa 488-conjugated anti-rabbit antibody (Invitrogen Life Technologies) and phalloidin tetramethylrhodamine B isothiocyanate–conjugated […] (Sigma-Aldrich), and then washed, and mounted with a mixture containing 30% mounting medium, 4′,6-diamidino-2-phenylindole (DAPI) (Santa Cruz Biotechnology Inc., Santa Cruz, CA) and 70% fluoromount (Sigma-Aldrich). The slides were viewed under a Leicactr4000 laser scanning confocal microscope.

Peptide K108-L123: peptide K108-L123 (16 aa) that failed to bind actin
ability to bind actin (in words) [1]: failed to bind actin
inhibition of angiogenin-induced tube formation (in words) [2]: unable to inhibit tube formation
inhibition of VEGF-induced tube formation (in words) [3]: unable to inhibit tube formation

hRNASET2: full-length human RNASET2, produced in CHO, T2BIOTECH Ltd
association rate Ka ([4]; HBS (10mM Hepes, 150mM NaCl, 3mM EDTA, 0.005% Polysorbate 20), association 4 min, dissociation 3 min, global fit BIAevaluation 3.2): 2.40 × 10^3 (1/Ms)
dissociation rate Kd ([4]; HBS (10mM Hepes, 150mM NaCl, 3mM EDTA, 0.005% Polysorbate 20), dissociation 3 min, global fit BIAevaluation 3.2): 0.00346 s⁻¹
Kd ([4]; HBS, determined from kinetic analyses, BIAevaluation 3.2, read-out: dissociation constant KD): 1440 nM
blood vessels around the treated disk [5]: fewer blood vessels developed compared to the control

angiogenin: angiogenin (R&D Systems, Inc. Minneapolis, MN)
localization of angiogenin in presence of peptide K108-K133 ([6]; 2 and 8 h of incubation with the peptide and angiogenin): Same angiogenin localization was observed after 2 and 8 h
localization of angiogenin in presence of peptide K108-K133 ([6]; 10 min of incubation with the peptide and angiogenin): located in the nucleus, the cytoplasm surrounding the nucleus, on the actin fibers and outside the cell

CC[C@H](C)[C@H](NC(=O)CNC(=O)[C@H](CC(C)C)NC(=O)[C@H](CCCCN)NC(=O)[C@H](CC(C)C)NC(=O)[C@H](CC(C)C)NC(=O)[C@@H](NC(=O)[C@H](CO)NC(=O)[C@H](CC(N)=O)NC(=O)[C@H](CC(C)C)NC(=O)[C@H](CC(=O)O)NC(=O)[C@H](CC(C)C)NC(=O)[C@H](CCC(=O)O)NC(=O)[C@H](CCCNC(=N)N)NC(=O)[C@H](Cc1ccc(O)cc1)NC(=O)[C@H](CC(C)C)NC(=O)[C@H](CCC(=O)O)NC(=O)[C@H](CC(C)C)NC(=O)[C@H](CO)NC(=O)[C@H](CCCNC(=N)N)NC(=O)CNC(=O)[C@H](Cc1ccccc1)NC(=O)[C@H](Cc1ccc(O)cc1)NC(=O)[C@H](CCCCN)NC(=O)[C@@H](N)CCCCN)C(C)C)C(=O)N[C@@H](CCCCN)C(=O)O [Peptide K108-K133]
kon ([4]; HBS (10mM Hepes, 150mM NaCl, 3mM EDTA, 0.005% Polysorbate 20), association 4 min, dissociation 3 min, global fit BIAevaluation 3.2, read-out: association rate Ka): 14200 M⁻¹ s⁻¹
koff ([4]; HBS (10mM Hepes, 150mM NaCl, 3mM EDTA, 0.005% Polysorbate 20), dissociation 3 min, global fit BIAevaluation 3.2, read-out: dissociation rate Kd): 0.0458 s⁻¹
